Here are results for 33 compounds from US10662183B2, “Inhibitors of myocardin-related transcription factor and serum response factor (MRTF/SRF)-mediated gene transcription and methods for use of the same” (THE REGENTS OF THE UNIVERSITY OF MICHIGAN, priority 2014, dated 2020).

One assay concerns SRE.L-firefly luciferase reporter (Rho/MKL1 pathway) in PC-3 prostate cancer cells. As to the kind of experiment: SRE.L-luciferase reporter assay. It counts as cell-based. The conditions noted are these: 19 h, PC-3 cells transfected with Gα12Q231L, SRE.L and pRL-TK reporters; compound 19 hrs. On the procedure: Seed PC-3 prostate cancer cells (40,000 cells/well) were grown in 96-well plates in 10% FBS containing DMEM medium. Cells were transiently transfected with the Ga12QL activator of the Rho/MKL1 pathway, along with the SRE.L-firefly luciferase reporter construct for 6 hours. Additionally, cells were co-transfected with the TK-Renilla luciferase reporter as an indicator of non-specific compound effects. Various concentrations of the compounds disclosed herein were added to the 96-well plates. Plates were incubated for 19 hours at 37° C. and 5% C02 in 0.5% FBS containing DMEM medium. Cells were lysed with IX Passive Lysis Buffer (Promega). Plates were incubated for 30 minutes at room temperature. Luminescence counts were read with a Victor2 (Perkin-Elmer) plate reader.
One hour prior to cell lysis for the dual luciferase assay, 10 μl: per well of WST1 reagent (Roche) was added to the 96-well plates. Plates were incubated for 1 hour at 37° C. and 5% CO2. Cell viability was measured by WST1 absorbance at 450 nm with a Victor2 (Perkin-Elmer) plate reader.
Biological activity of the compounds disclosed herein were assessed in the SRE.L luciferase reporter assay. PC-3 prostate cancer cells were co-transfected with 2 ng of the Gα12Q231L expression plasmid along with 50 ng of the SRE.L and 7 ng of the pRL-TK luciferase reporter plasmids, as described in the Materials and Methods section. Cells were treated with 0 (vehicle, DMSO alone), 1, 3, 10, 30, and 100 μM of a compound disclosed herein for 19 hrs after transfection before lysis. Luminescence was determined as described in the Materials and Methods section. Just before cell lysis, the viability of the cells was measured using the WST-1 cell proliferation reagent as described in the Materials and Methods section. Data are expressed as percentage of inhibition (DMSO alone=0%). The experiments were performed three separate times to achieve n=3 in triplicate.
With `O=C(Nc1ccc(Cl)cc1)C1CCCN(C(=O)c2ccccc2-c2ccco2)C1` (stereo not drawn) [Example E-092, N-(4-chlorophenyl)-1-(2-(furan-2-yl)benzoyl)piperidine-3-carboxamide], the midpoint of inhibition, the IC50, lay at 0.71 µM.

Compound `O=C(Nc1ccc(Cl)cc1)C1CCCN(C(=O)c2cc(-c3ccco3)ncn2)C1` (stereo not drawn) [Example E-034, N-(4-chlorophenyl)-1-(6-(furan-2-yl)pyrimidine-4-carbonyl) piperidine-3-carboxamide] came in with an IC50 of more than 100 µM.

With `O=C(Nc1ccc(Cl)cc1)C1CN(C(=O)c2cccc(-c3cn[nH]c3)c2)CC(F)(F)C1` (stereo not drawn) [Example E-106, 1-(3-(1H-pyrazol-4-yl)benzoyl)-N-(4-chlorophenyl)-5,5-difluoropiperidine-3-carboxamide], the midpoint of inhibition, the IC50, lay at 15 µM. That is a double-digit micromolar value.

`C=CCNC(=O)N1CCN(C(=O)c2cccc(-c3ccco3)c2)CC1C(=O)Nc1ccc(Cl)cc1` (stereo not drawn) [Example E-012, N1-allyl-N2-(4-chlorophenyl)-4-(3-(furan-2-yl)benzoyl)piperazine-1,2-dicarboxamide] returned an IC50 of 25 µM.

For the compound `O=C1CC(C(=O)Nc2ccc(Cl)cc2)CN(C(=O)c2cccc(-c3ccco3)c2)C1` (stereo not drawn) [Example E-063, N-(4-chlorophenyl)-1-(3-(furan-2-yl)benzoyl)-5-oxopiperidine-3-carboxamide], the IC50 was found to be 15 µM. This IC50 is about 1.7-fold lower than that of the compound before.

`O=C(Nc1ccc(Cl)cc1)C1CC(NCc2ccccc2)CN(C(=O)c2cccc(-c3ccco3)c2)C1` (stereo not drawn) [Example E-048, 5-(benzylamino)-N-(4-chlorophenyl)-1-(3-(furan-2-yl)benzoyl)piperidine-3-carboxamide] returned an IC50 of 0.047 µM. This IC50 lies about 320-fold lower than the previous one.

Consider `O=C(Nc1ccc(Cl)cc1)C1CN(C(=O)c2cccc(-c3ccco3)c2)CCN1C(=O)Nc1ccccc1` (stereo not drawn) [Example E-009, N2-(4-chlorophenyl)-4-(3-(furan-2-yl)benzoyl)-N1-phenylpiperazine-1,2-dicarboxamide], for which the concentration for half-maximal inhibition (IC50) was determined as 18 µM.

In the case of `O=C(Nc1ccc(Cl)cc1)C1CN(C(=O)c2cccc(-c3ccco3)c2)CCN1Cc1ccccc1` (stereo not drawn) [Example E-017, 1-benzyl-N-(4-chlorophenyl)-4-(3-(furan-2-yl)benzoyl)piperazine-2-carboxamide], the IC50 was determined as 16 µM.

Turning to `CCC(=O)N1CCN(C(=O)c2cccc(-c3ccco3)c2)CC1C(=O)Nc1ccc(Cl)cc1` (stereo not drawn) [Example E-005, N-(4-chlorophenyl)-4-(3-(furan-2-yl)benzoyl)-1-propionylpiperazine-2-carboxamide], the half-maximal inhibitory concentration (IC50) came out at 19 µM.

Compound `O=C(Nc1ccc(Cl)cc1)C1CCCN(C(=O)c2csc(-c3ccccc3)n2)C1` (stereo not drawn) [Example E-073, N-(4-chlorophenyl)-1-(2-phenylthiazole-4-carbonyl)piperidine-3-carboxamide] displayed a half-maximal inhibitory concentration (IC50) of 0.45 µM.

As for `Cc1ccc(NC(=O)C2CCCN(C(=O)c3cccc(-c4ccco4)c3)C2)cc1` (stereo not drawn) [Example E-111, 1-(3-(furan-2-yl)benzoyl)-N-(p-tolyl)piperidine-3-carboxamide], the IC50 was 15 µM. Against the preceding compound, the IC50 is about 33-fold higher.

In turn, `O=C(Nc1ccc(Cl)cc1)C1CCCN(C(=O)c2cncc(-c3ccco3)c2)C1` (stereo not drawn) [Example E-023, N-(4-chlorophenyl)-1-(5-(furan-2-yl)nicotinoyl)piperidine-3-carboxamide] had an IC50 of 4.9 µM.

In turn, `COc1ccc2nc(C(=O)N3CCCC(C(=O)Nc4ccc(Cl)cc4)C3)[nH]c2c1` (stereo not drawn) [Example E-033, N-(4-chlorophenyl)-1-(6-methoxy-1H-benzo[d]imidazole-2-carbonyl)piperidine-3-carboxamide] displayed a half-inhibitory concentration (IC50) of 2.7 µM.

Consider `O=C(Nc1ccc(Cl)cc1)C1CN(C(=O)c2cccc(-c3ccccn3)c2)CC(F)(F)C1` (stereo not drawn) [Example E-096, N-(4-chlorophenyl)-5,5-difluoro-1-(3-(pyridin-2-yl)benzoyl)piperidine-3-carboxamide], for which the IC50 was 1.1 µM.

In turn, `CCOC(=O)NC1CC(C(=O)Nc2ccc(Cl)cc2)CN(C(=O)c2cccc(-c3ccco3)c2)C1` (stereo not drawn) [Example E-058, ethyl (5-((4-chlorophenyl)carbamoyl)-1-(3-(furan-2-yl)benzoyl)piperidin-3-yl)carbamate] displayed an IC50 of 15 µM.

`O=C(Nc1ccc(Cl)cc1)C1CCCN(C(=O)c2ccc3[nH]ncc3c2)C1` (stereo not drawn) [Example E-082, N-(4-chlorophenyl)-1-(1H-indazole-5-carbonyl)piperidine-3-carboxamide]: half-maximal inhibition (IC50) was put at 0.37 µM.

Compound `CC(C)NC(=O)N1CCN(C(=O)c2cccc(-c3ccco3)c2)CC1C(=O)Nc1ccc(Cl)cc1` (stereo not drawn) [Example E-010, N2-(4-chlorophenyl)-4-(3-(furan-2-yl)benzoyl)-N1-isopropylpiperazine-1,2-dicarboxamide] returned a half-inhibitory concentration (IC50) of 24 µM.

In turn, `O=C(Nc1ccc(Cl)cc1)C1CCCN(C(=O)c2cnc(Br)s2)C1` (stereo not drawn) [Example E-036, 1-(2-bromothiazole-5-carbonyl)-N-(4-chlorophenyl) piperidine-3-carboxamide] returned an IC50 of more than 100 µM.

On to `O=C(Nc1ccc(Cl)cc1)C1CCCN(C(=O)c2cc3ccccc3[nH]2)C1` (stereo not drawn) [Example E-080, N-(4-chlorophenyl)-1-(1H-indole-2-carbonyl)piperidine-3-carboxamide], for which the concentration for half-maximal inhibition (IC50) was 0.31 µM.

As to `O=C(Nc1ccc(Cl)cc1)C1CCCN(C(=O)Cc2cc3ccccc3o2)C1` (stereo not drawn) [Example E-071, 1-(2-(benzofuran-2-yl)acetyl)-N-(4-chlorophenyl)piperidine-3-carboxamide], half-maximal inhibition (IC50) required 12 µM.

The compound `O=C(Nc1ccc(Cl)cc1)C1CCCN(C(=O)c2cnc(-c3ccco3)s2)C1` (stereo not drawn) [Example E-037, N-(4-chlorophenyl)-1-(2-(furan-2-yl)thiazole-5-carbonyl)piperidine-3-carboxamide] displayed an IC50 of 18 µM.

`O=C(Nc1ccc(Cl)cc1)C1CCCN(Cc2ccc(-n3cccn3)cc2)C1` (stereo not drawn) [Example E-114, 1-(4-(1H-pyrazol-1-yl)benzyl)-N-(4-chlorophenyl)piperidine-3-carboxamide]: the IC50 was 1.6 µM.

For the compound `O=C(Nc1ccc(Cl)cc1)C1CCCN(C(=O)Cc2csc(-c3ccc(F)cc3)n2)C1` (stereo not drawn) [Example E-078, N-(4-chlorophenyl)-1-(2-(2-(4-fluorophenyl)thiazol-4-yl)acetyl)piperidine-3-carboxamide], the 50% inhibitory concentration (IC50) worked out at 1 µM.

`Cc1nc(-c2ccccc2)sc1C(=O)N1CCCC(C(=O)Nc2ccc(Cl)cc2)C1` (stereo not drawn) [Example E-072, N-(4-chlorophenyl)-1-(4-methyl-2-phenylthiazole-5-carbonyl)piperidine-3-carboxamide]: the IC50 was 0.084 µM.

In turn, `CCOC(=O)N1CCN(C(=O)c2cccc(-c3ccco3)c2)CC1C(=O)Nc1ccc(Cl)cc1` (stereo not drawn) [Example E-014, ethyl 2((4-chlorophenyl)carbamoyl)-4-(3-(furan-2-yl)benzoyl)piperazine-1-carboxylate] displayed a concentration for half-maximal inhibition (IC50) of 16 µM.

`O=C(Nc1ccc(Cl)cc1)C1CCCN(C(=O)CCc2c[nH]c3ccccc23)C1` (stereo not drawn) [Example E-083, 1-(3-(1H-indol-3-yl)propanoyl)-N-(4-chlorophenyl) piperidine-3-carboxamide] registered an IC50 of 0.67 µM.

`O=C(Nc1ccc(Cl)cc1)C1CN(C(=O)c2cc(F)cc(-c3ccncc3)c2)CC(F)(F)C1` (stereo not drawn) [Example E-041, N-(4-chlorophenyl)-5,5-difluoro-1-(3-fluoro-5-(pyridin-4-yl)benzoyl)piperidine-3-carboxamide] registered a half-maximal inhibitory concentration (IC50) of 0.83 µM. This IC50 and that of the compound before are within 1.5-fold of each other.

Consider `O=C(Nc1ccc(Cl)cc1)C1CCCN(C(=O)c2ccc3cc[nH]c3c2)C1` (stereo not drawn) [Example E-086, N-(4-chlorophenyl)-1-(1H-indole-6-carbonyl)piperidine-3-carboxamide], for which the midpoint of inhibition, the IC50, lay at 0.097 µM.

In turn, `O=C(Nc1ccc(Cl)cc1)C1CN(C(=O)c2cccc(-c3ccco3)c2)CCN1C(=O)OCc1ccccc1` (stereo not drawn) [Example E-004, benzyl 2-((4-chlorophenyl)carbamoyl)-4-(3-(furan-2-yl)benzoyl)piperazine-1-carboxylate] registered an IC50 of 1.8 µM.

In turn, `O=C(Nc1ccc(Cl)cc1)C1CN(C(=O)c2nc3ccccc3[nH]2)CC(F)(F)C1` (stereo not drawn) [Example E-075, 1-(1H-benzo[d]imidazole-2-carbonyl)-N-(4-chlorophenyl)-5,5-difluoropiperidine-3-carboxamide] had an IC50 of 0.68 µM.

`O=C(Nc1ccccc1Cl)C1CCCN(C(=O)c2cccc(-c3ccco3)c2)C1` (stereo not drawn) [Example E-101, N-(2-chlorophenyl)-1-(3-(furan-2-yl)benzoyl)piperidine-3-carboxamide]: 5.6 µM corresponded to half-maximal inhibition (IC50).

The assay is the same for the next values; noted with them: PC-3 cells transfected with Gα12Q231L, SRE.L and pRL-TK reporters; compound 19 hrs.
With `O=C(NC1CC(C(=O)Nc2ccc(Cl)cc2)CN(C(=O)c2cccc(-c3ccco3)c2)C1)c1ccccc1` (single isomer, unassigned) [Example E-054, 5-benzamido-N-(4-chlorophenyl)-1-(3-(furan-2-yl)benzoyl) piperidine-3-carboxamide], half-maximal inhibition (IC50) was put at 30 µM.

On to `O=C(NC1CC(C(=O)Nc2ccc(Cl)cc2)CN(C(=O)c2cccc(-c3ccco3)c2)C1)c1ccccc1` (single isomer, unassigned) [Example E-055, 5-benzamido-N-(4-chlorophenyl)-1-(3-(furan-2-yl)benzoyl) piperidine-3-carboxamide], for which the IC50 turned out to be 2.2 µM.
